The nature of series [1]: Lipid clearance: % dose remaining, Tables 7c and 8b-8e (species not given). The class given is in vivo. An excerpt:
In contrast, hEPO expression in rats induced by administration of a nanoparticle composition including a compound according to one of formulae (I), (Ia1)-(Ia6), (Ib), (II), (IIa), (III), and (IIIa) was substantially […] than that measured for MC3. […] Tables 7c and 7d show additional protein expressions and clearance data from compositions with various compounds disclosed herein as compared to with MC3. Tables 7e, 7f and 7g show hEPO expression data in CD-1 mice at a dose of 0.5 mpk.

Series [2] is described as follows: Particle size and polydispersity index of nanoparticle compositions (Zetasizer Nano ZS). In kind it is physicochemical. The conditions noted are these: Formulated with lipid:Chol:DOPE:PEG 1 40:38.5:20:1.5. Here is the method: A Zetasizer Nano ZS (Malvem Instruments Ltd, Malvem, Worcestershire, UK) can be used to determine the particle size, the polydispersity index (PDI) and the zeta potential of the nanoparticle compositions in 1×PBS in determining particle size and 15 mM PBS in determining zeta potential.

Series [3] can be described thus: Encapsulation efficiency of RNA (QUANT-IT RIBOGREEN RNA assay). The class given is physicochemical. The conditions noted are these: Formulated with lipid:Chol:DOPE:PEG 1 40:38.5:20:1.5. The gist of the method: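 Samples diluted to about 5 μg/mL RNA in TE buffer pH 7.5, treated with buffer or 2% Triton X-100 for 15 min at 37° C, then stained with RiboGreen (1:100). Fluorescence at about 480/520 nm, blank-subtracted; free RNA fraction is intact over Triton-disrupted signal.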

The next series relates to hEPO expression. The experiment in a line: hEPO (miR126 + miR142) mRNA expression, Tables 8b-8e. In kind it is in vivo.
The mark [4] stands for this setting: lipid:Chol:PEG 1 50:47.5:2.5, Table 8e.

Molecules are shown by their SMILES.

Consider `CCCC/C=C\CCCCCCCCN(CCCOC(=O)CCCCCCCCC)CC(=O)N1CCN(C(=O)CN(CCCCCCCCC)CCN(CCCCCCCCC)CCCCCCCCC)CC1` [Compound 140, (Z)-3-((2-(4-(N-(2-(Dinonylamino)ethyl)-N-nonylglycyl)piperazin-1-yl)-2-oxoethyl)(tetradec-9-en-1-yl)amino)propyl Decanoate], for which the “% Dose Remaining (liver, 24 h)” value in series [1] (Table 8b) is 1.66%. In series [2] (Table 1d), the PDI stood at 0.14 and the “Size (nm)” value amounted to 131.1 nm. In addition, in series [3] (Table 1d), the “EE (%)” value was found to be 86.9%. In addition, the “AUC” value in the series on hEPO expression (Table 8b) is 4.55e+07 pg·h/mL.

With `CCCCCCCCCCCCCCN(C/C=C\COC(=O)CCCCCCCC)CC(=O)N1CCN(C(=O)CN(CCCCCCCCC)CCN(CCCCCCCCC)CCCCCCCCC)CC1` [Compound 141, (Z)-4-((2-(4-(N-(2-(dinonylamino)ethyl)-N-nonylglycyl)piperazin-1-yl)-2-oxoethyl)(tetradecyl)amino)but-2-en-1-yl nonanoate], in series [1] (Table 8b), the “% Dose Remaining (liver, 24 h)” value is listed as 1.41%. Moreover, in series [2] (Table 1d), the PDI was found to be 0.15 and the “Size (nm)” value was found to be 131.5 nm. Besides, in series [3] (Table 1d), the “EE (%)” value is 97.6%. Also, in the series with hEPO expression (Table 8b), the “AUC” value came out at 2.7e+07 pg·h/mL.

Turning to `CCCCCCCCCN(CCCCCCCCC)CCN(CCCCCCCCC)CC(=O)NCCNC(=O)CN(CCCCCCCCC)CCCCCCCCC` [Compound 153, 2-(dinonylamino)-N-(2-(2-((2-(dinonylamino)ethyl)(nonyl)amino)acetamido)ethyl)acetamide], the “% Dose Remaining (liver, 24 h)” value in series [1] (Table 8b) came out at 84.71%. For the same molecule, in series [2] (Table 1d), the PDI is 0.23 and the “Size (nm)” value is 116.7 nm. For the same molecule, the “EE (%)” value in series [3] (Table 1d) is listed as 97.2%. In the series with hEPO expression (Table 8b), the “AUC” value is 5.62e+07 pg·h/mL.

Take `CCCCC/C=C\CCN(CC/C=C\CCCCC)CCN(CC/C=C\CCCCC)CC(=O)N(C)CCN(C)C(=O)CN(CCCCCCCCC)CCCCCCCCC` [Compound 154, 2-((2-(di((Z)-non-3-en-1-yl)amino)ethyl)((Z)-non-3-en-1-yl)amino)-N-(2-(2-(dinonylamino)-N-methylacetamido)ethyl)-N-methylacetamide]: the “% Dose Remaining (liver, 24 h)” value in series [1] (Table 8b) is 78.44%. In addition, in series [2] (Table 1d), the PDI turned out to be 0.18 and the “Size (nm)” value came out at 103.3 nm. Also, the “EE (%)” value in series [3] (Table 1d) stood at 97.8%. Besides, the “AUC” value in the series with hEPO expression (Table 8b) was determined as 1.37e+08 pg·h/mL.

For `CCCCCCCCCN(CCCCCCCCC)CCN(CCCCCCCCC)CC(=O)N(C)CCCN(C)C(=O)CN(CCCCCCCCC)CCCCCCCCC` [Compound 155, 2-(dinonylamino)-N-(3-(2-((2-(dinonylamino)ethyl)(nonyl)amino)-N-methylacetamido)propyl)-N-methylacetamide], the “% Dose Remaining (liver, 24 h)” value in series [1] (Table 8b) stood at 78.61%. In addition, in series [2] (Table 1d), the PDI is 0.22 and the “Size (nm)” value is reported as 84.4 nm. Further, the “EE (%)” value in series [3] (Table 1d) is recorded as 98.4%. In the series with hEPO expression (Table 8b), the “AUC” value stood at 8.89e+07 pg·h/mL.

`CCCCCCCCCN(CCCCCCCCC)CCN(CCCCCCCCC)CC(=O)N(CC)CCN(CC)C(=O)CN(CCCCCCCCC)CCCCCCCCC` [Compound 157, 2-(dinonylamino)-N-(2-(2-((2-(dinonylamino)ethyl)(nonyl)amino)-N-ethylacetamido)ethyl)-N-ethylacetamide]: the “% Dose Remaining (liver, 24 h)” value in series [1] (Table 8b) came out at 42.48%. In series [2] (Table 1d), the PDI stood at 0.11 and the “Size (nm)” value stood at 89.8 nm. Besides, in series [3] (Table 1d), the “EE (%)” value came out at 98.3%. Besides, the “AUC” value in the series on hEPO expression (Table 8b) is 2.08e+08 pg·h/mL.

Take `CCCCCCCCCCCCCCN(CCCOC(=O)CCCCCCCCC)CC(=O)N(C)CCN(C)C(=O)CN(CCCCCCCCC)CCN(CCCCCCCCC)CCCCCCCCC` [Compound 158, 7,10-dimethyl-13,16-dinonyl-6,11-dioxo-4-tetradecyl-4,7,10,13,16-pentaazapentacosyl Decanoate]: the “% Dose Remaining (liver, 24 h)” value in series [1] (Table 8b) is 0.30%. For the same molecule, in series [2] (Table 1d), the PDI amounted to 0.20 and the “Size (nm)” value was found to be 124.2 nm. The “EE (%)” value in series [3] (Table 1d) is listed as 97.8%. In addition, the “AUC” value in the series on hEPO expression (Table 8b) came out at 1.03e+07 pg·h/mL.

`CCCCCCCCCN(CCCCCCCCC)CCCCCCCCN(CCCCCCCCC)CCN(CCCCCCCCC)CCCCCCCCC` [Compound 160, N^1-(2-(dinonylamino)ethyl)-N^1,N^8,N^8-trinonyloctane-1,8-diamine]: in series [1] (Table 8b), the “% Dose Remaining (liver, 24 h)” value is on record as 60.54%. In series [2] (Table 1d), the PDI stood at 0.25 and the “Size (nm)” value was 115.5 nm. Besides, the “EE (%)” value in series [3] (Table 1d) was determined as 97.3%. Besides, the “AUC” value in the series with hEPO expression (Table 8b) was 219000 pg·h/mL.

As for `CCCCCCCCCN(CCCCCCCCC)CCCOCCCN(CCCCCCCCC)CCN(CCCCCCCCC)CCCCCCCCC` [Compound 161, N^1-(3-(3-(dinonylamino)propoxy)propyl)-N^1,N^2,N^2-trinonylethane-1,2-diamine], the “% Dose Remaining (liver, 24 h)” value in series [1] (Table 8c) was determined as 113.64%. Besides, in series [2] (Table 1e), the PDI is recorded as 0.17 and the “Size (nm)” value amounted to 61.8 nm. The “EE (%)” value in series [3] (Table 1e) was determined as 97.8%. In addition, the “AUC” value with hEPO expression (Table 8c) amounted to 128000 pg·h/mL.

Turning to `CCCCCCCCCCNC(=O)CN(CCCCCCCCC)CCN(CCCCCCCCC)CCCCCCCCC` [Compound 162, N-decyl-2-((2-(dinonylamino)ethyl)(nonyl)amino)acetamide], the “% Dose Remaining (liver, 24 h)” value in series [1] (Table 8c) is recorded as 63.12%. In series [2] (Table 1e), the PDI is on record as 0.23 and the “Size (nm)” value was found to be 73.1 nm. Moreover, the “EE (%)” value in series [3] (Table 1e) is 98.4%. For the same molecule, in the series on hEPO expression (Table 8c), the “AUC” value stood at 2.3e+07 pg·h/mL.

Turning to `CCCCCCCCCCCCCCNC(=O)CN(CCCCCCCCC)CCN(CCCCCCCCC)CCCCCCCCC` [Compound 163, 2-((2-(dinonylamino)ethyl)(nonyl)amino)-N-tetradecylacetamide], in series [1] (Table 8c), the “% Dose Remaining (liver, 24 h)” value was determined as 65.12%. Besides, in series [2] (Table 1e), the PDI worked out at 0.23 and the “Size (nm)” value is reported as 88.6 nm. In series [3] (Table 1e), the “EE (%)” value was determined as 98.1%. The “AUC” value in the series on hEPO expression (Table 8c) was 1.01e+07 pg·h/mL.

`CCCCCCCCCCN(CCCCCCCCCC)CCCCC(=O)N1CCN(C(=O)CCCCN(CCCCCCCCCC)CCCCCCCCCC)CC1` [Compound 164, 1,1′-(Piperazine-1,4-diyl)bis(5-(didecylamino)pentan-1-one)]: the “% Dose Remaining (liver, 24 h)” value in series [1] (Table 8c) is reported as 40.18%. For the same molecule, in series [2] (Table 1e), the PDI is 0.15 and the “Size (nm)” value stood at 74.4 nm. Also, the “EE (%)” value in series [3] (Table 1e) is on record as 97.7%. In the series on hEPO expression (Table 8c), the “AUC” value came to 4.09e+06 pg·h/mL.

For `CCCCCCCCCN(CCCCCCCCC)CCN(CCCCCCCCC)CC(=O)NCCCCOC(=O)CCCC` [Compound 165, 4-(2-((2-(dinonylamino)ethyl)(nonyl)amino)acetamido)butyl pentanoate], the “% Dose Remaining (liver, 24 h)” value in series [1] (Table 8c) is listed as 0.13%. In series [2] (Table 1e), the PDI was determined as 0.22 and the “Size (nm)” value is recorded as 107.8 nm. In series [3] (Table 1e), the “EE (%)” value is reported as 97.0%. Also, in the series on hEPO expression (Table 8c), the “AUC” value worked out at 9.38e+07 pg·h/mL.

Take `CCCCCCCCCOC(=O)CN(CCCCCCCCC)CCN(CCCCCCCCC)CCCCCCCCC` [Compound 166, Nonyl N-(2-(dinonylamino)ethyl)-N-nonylglycinate]: the “% Dose Remaining (liver, 24 h)” value in series [1] (Table 8c) came to 75.26%. Besides, in series [2] (Table 1e), the PDI came to 0.24 and the “Size (nm)” value is 59.4 nm. In addition, the “EE (%)” value in series [3] (Table 1e) is recorded as 97.1%. Also, in the series with hEPO expression (Table 8c), the “AUC” value is 0 pg·h/mL.

`CCCCCCCCCCCCCCOC(=O)CN(CCCCCCCCC)CCN(CCCCCCCCC)CCCCCCCCC` [Compound 167, Tetradecyl N-(2-(dinonylamino)ethyl)-N-nonylglycinate]: the “% Dose Remaining (liver, 24 h)” value in series [1] (Table 8c) is listed as 89.60%. In series [2] (Table 1e), the PDI is on record as 0.22 and the “Size (nm)” value is 64.5 nm. The “EE (%)” value in series [3] (Table 1e) is listed as 97.6%. Besides, the “AUC” value in the series with hEPO expression (Table 8c) was 0 pg·h/mL.

On to `CCCCCCCCCN(CCCCCCCCC)CCN(CCCCCCCCC)CCOC(=O)CCCCCCCC` [Compound 168, 2-((2-(Dinonylamino)ethyl)(nonyl)amino)ethyl Nonanoate], for which the “% Dose Remaining (liver, 24 h)” value in series [1] (Table 8c) is listed as 2.74%. Also, in series [2] (Table 1e), the PDI is 0.17 and the “Size (nm)” value worked out at 60.0 nm. In addition, the “EE (%)” value in series [3] (Table 1e) is 97.3%. For the same molecule, the “AUC” value in the series on hEPO expression (Table 8c) is 0 pg·h/mL.

For `CCCCCCCCCCCCCC(=O)OCCN(CCCCCCCCC)CCN(CCCCCCCCC)CCCCCCCCC` [Compound 169, 2-((2-(Dinonylamino)ethyl)(nonyl)amino)ethyl Tetradecanoate], in series [1] (Table 8c), the “% Dose Remaining (liver, 24 h)” value is on record as 0.30%. For the same molecule, in series [2] (Table 1e), the PDI turned out to be 0.24 and the “Size (nm)” value stood at 72.5 nm. Further, the “EE (%)” value in series [3] (Table 1e) is given as 97.6%. In addition, the “AUC” value with hEPO expression (Table 8c) was 0 pg·h/mL.

As to `CCCCCCCCCOC(=O)CCCCCCCN(CCCCCCCC(=O)OC(CCCCCCCC)CCCCCCCC)CCOCCN(CCCCCCCCC)CCCCCCCCC` [Compound 180, Heptadecan-9-yl 8-((2-(2-(dinonylamino)ethoxy)ethyl)(8-(nonyloxy)-8-oxooctyl)amino)octanoate], in series [1] (setting [4]), the “% Dose Remaining (liver, 24 h)” value was 50.47%. Besides, the “AUC (mIU/mL*h)” value in the series on hEPO expression (setting [4]) was 6.53E+07 mIU/mL*h.

Source of the values: patent US12077501B2, “Compounds and compositions for intracellular delivery of agents” (ModernaTX, Inc., priority 2017, dated 2024).
